Laboratory results reported in patent publication US20250228242A1 (priority 2021, published 2025).
Where a name gives a salt, the structure may show the parent alone.

Test system: P. infestans
Assay: whole plant or invertebrate
Assay type: in vivo
Conditions: Phytophthora infestans, in Solanum tuberosum, read-out: P. infestans % inhibition

SMILES: CC(C)[C@H](N)C(=O)Nc1cccc(-c2cc(-c3cccc(OC(F)(F)F)c3)[nH]n2)c1 [Compound 145, (2S)-2-Amino-N-{3-[5-(3-trifluoromethoxyphenyl)-1H-pyrazol-3-yllphenyl}-3-methylbutanamide hydrochloride]
- inhibition at 100 µM: 97%

SMILES: CCOC(=O)c1ccc(-c2noc(-c3ccc(SC)cc3)n2)cc1 [Compound 95, Ethyl 4-{5-[4-(methylsulfanyl)phenyl]-1,2,4-oxadiazol-3-yl}benzoate]
- inhibition at 100 µM: 9%

SMILES: COC(=O)Nc1ccc(-c2nc(-c3ccc(OC(F)(F)F)cc3)n[nH]2)cc1 [Compound 77, Methyl (4-{5-[4-(trifluoromethoxy)phenyl]-1H-1,2,4-triazol-3-yl}phenyl)carbamate]
- inhibition at 100 µM: 6%

SMILES: COc1ccc(-c2nc(-c3ccc(C)c(C)c3)n[nH]2)cc1OC [Compound 160, 5-(3,4-Dimethoxyphenyl)-3-(3,4-dimethylphenyl)-1H-1,2,4-triazole]
- inhibition at 100 µM: 76%

SMILES: Cc1cccc(-c2nc(-c3ccc(Cl)c(Cl)c3)c[nH]2)c1 [Compound 79, 5-(3,4-Dichlorophenyl)-2-(3-methylphenyl)-1H-imidazole]
- inhibition at 100 µM: 81%

SMILES: CN1CCN(c2ccc(-c3cc(-c4cc(F)cc(F)c4)[nH]n3)cc2)CC1 [Compound 146, 1-{4-[5-(3,5-Difluorophenyl)-1H-pyrazol-3-yl]phenyl}-4-methylpiperazine]
- inhibition at 100 µM: 95%

SMILES: Nc1ccc(-c2cc(-c3ccccc3F)no2)cc1 [Compound 45, 5-(4-Aminophenyl)-3-(2-fluorophenyl)-isoxazole]
- inhibition at 100 µM: 76%

SMILES: Cc1ccc(-c2n[nH]c(-c3cccc(NC(=O)[C@@H](N)CC(C)C)c3)n2)cc1 [Compound 159, (2S)-2-Amino-N-{3-[3-(4-methylphenyl)-1H-1,2,4-triazol-5-yl]phenyl}-4-methylpentanamide]
- inhibition at 100 µM: 97%

SMILES: CCc1ccc(-c2c[nH]c(-c3cccc(C(=O)N4CCN(C)CC4)c3)n2)cc1 [Compound 138, (4-Methylpiperazin-1-yl){3-[4-(4-ethylphenyl)-1H-imidazol-2-yl]phenyl}methanone]
- inhibition at 100 µM: 68%

SMILES: CN1CCN(c2ccc(-c3cc(-c4cc(F)ccc4F)[nH]n3)cc2)CC1 [Compound 149, 1-{4-[5-(2,5-Difluorophenyl)-1H-pyrazol-3-yl]phenyl}-4-methylpiperazine]
- inhibition at 100 µM: 8%

SMILES: Cc1ccc(N)cc1-c1nc(-c2ccc(F)cc2)n[nH]1 [Compound 100, 5-(3-Amino-6-methylphenyl)-3-(4-fluorophenyl)-1H-1,2,4-triazole]
- inhibition at 100 µM: 51%

SMILES: CS(=O)(=O)Nc1cccc(-c2ncc(-c3ccc(Cl)c(Cl)c3)o2)c1 [Compound 119, N-{3-[5-(3,4-Dichlorophenyl)-1,3-oxazol-2-yl]phenyl} methanesulfonamide]
- inhibition at 100 µM: 15%

SMILES: Clc1ccc(-c2cc(-c3ccc4c(c3)OCCO4)n[nH]2)cc1 [Compound 111, 5-(4-Chlorophenyl)-3-(2,3-dihydro-1,4-benzodioxin-6-yl)-1H-pyrazole]
- inhibition at 100 µM: 24%

SMILES: Cc1ccc(-c2n[nH]c(-c3cccc(NC(=O)OC(C)C)c3)n2)cc1 [Compound 157, Propan-2-yl {3-[3-(4-methylphenyl)-1H-1,2,4-triazol-5-yl]phenyl}carbamate]
- inhibition at 100 µM: 17%

SMILES: Brc1cccc(-c2cc(-c3ccc4nccnc4c3)n[nH]2)c1 [Compound 112, 6-[5-(3-Bromophenyl)-1H-pyrazol-3-yl]quinoxaline]
- inhibition at 100 µM: 44%

SMILES: CCSc1ccc(-c2cc(-c3ccccc3Cl)no2)cc1 [Compound 52, 3-(2-Chlorophenyl)-5-[4-(ethylsulfanyl)phenyl]-1,2-oxazole]
- inhibition at 100 µM: 9%

SMILES: Clc1cccc(-c2cc(-c3ccc4c(c3)OCCO4)n[nH]2)c1 [Compound 80, 5-(3-Chlorophenyl)-3-(2,3-dihydro-1,4-benzodioxin-6-yl)-1H-pyrazole]
- inhibition at 100 µM: 77%

SMILES: Clc1ccc(-c2cc(-c3cccc(N4CCOCC4)c3)[nH]n2)cc1 [Compound 3, 4-{3-[3-(4-Chlorophenyl)-1H-pyrazol-5-yl]phenyl}morpholine]
- inhibition at 100 µM: 20%

SMILES: Cc1ccc(-c2noc(-c3ccc(S(C)(=O)=O)cc3)n2)cc1 [Compound 89, 3-(4-Methylphenyl)-5-[4-(methylsulfonyl)phenyl]-1,2,4-oxadiazole]
- inhibition at 100 µM: 8%

SMILES: Oc1ccc(-c2noc(-c3ccc(Cl)cc3)n2)cc1 [Compound 70, 5-(4-Chlorophenyl)-3-(4-hydroxyphenyl)-1,2,4-oxadiazole]
- inhibition at 100 µM: 33%

SMILES: CCN(CC)C(=O)c1cccc(-c2ncc(-c3ccc(C(F)(F)F)cc3OC)o2)c1 [Compound 123, N,N-diethyl-3-{5-[2-methoxy-4-(trifluoromethyl)phenyl]-1,3-oxazol-2-yl}benzamide]
- inhibition at 100 µM: 33%

SMILES: NCCCC[C@H](N)C(=O)Nc1ccc(-c2nc(-c3ccc(OC(F)(F)F)cc3)n[nH]2)cc1 [Compound 58, (2S)-2,6-Diamino-N-(4-{3-[4-(trifluoromethoxy)phenyl]-1H-1,2,4-triazol-5-yl}phenyl)hexanamide dihydrochloride]
- inhibition at 100 µM: 89%

SMILES: O=C(Nc1ccc(O)cc1)c1ccc(-c2nc(-c3ccc(N4CCCC4)cc3)c[nH]2)cc1 [Compound 55, N-(4-Hydroxyphenyl)-4-{4-[4-(pyrrolidin-1-yl)phenyl]-1H-imidazol-2-yl}benzamide]
- inhibition at 100 µM: 85%

SMILES: CC(=O)Nc1ccc(-c2cc(-c3ccccc3F)no2)cc1 [Compound 46, N-{4-[3-(2-Fluorophenyl)-isoxazol-5-yl]phenyl}acetamide]
- inhibition at 100 µM: 7%

SMILES: N[C@@H](Cc1ccccc1)C(=O)Nc1cccc(-c2nc(-c3ccc(OC(F)(F)F)cc3)c[nH]2)c1 [Compound 141, (2S)-2-Amino-N-{3-[4-(4-trifluoromethoxyphenyl)-1H-imidazol-2-yl]phenyl}-3-phenylpropanamide hydrochloride]
- inhibition at 100 µM: 93%

SMILES: CCc1ccc(-c2c[nH]c(-c3ccc(NC(=O)OCCOC)cc3)n2)cc1 [Compound 154, 2-Methoxyethyl {4-[4-(4-ethylphenyl)-1H-imidazol-2-yl]phenyl}carbamate]
- inhibition at 100 µM: 89%

SMILES: COCCOC(=O)Nc1cccc(-c2nc(-c3ccc(OC)cc3)n[nH]2)c1 [Compound 139, 2-Methoxyethyl {3-[3-(4-methoxyphenyl)-1H-1,2,4-triazol-5-yl]phenyl}carbamate]
- inhibition at 100 µM: 48%

SMILES: Brc1cccc(-c2cc(-c3ccc4c(c3)OCCO4)n[nH]2)c1 [Compound 50, 5-(3-Bromophenyl)-3-(2,3-dihydro-1,4-benzodioxin-6-yl)-1H-pyrazole]
- inhibition at 100 µM: 28%

SMILES: O=C(O)c1ccc(-c2cc(-c3cccc(C(F)(F)F)c3)no2)cc1 [Compound 83, 4-{3-[3-(Trifluoromethyl)phenyl]-1,2-oxazol-5-yl}benzoic acid]
- inhibition at 100 µM: 26%

SMILES: FC(F)(F)c1cccc(-c2cc(-c3ccc4c(c3)OCCO4)n[nH]2)c1 [Compound 71, 3-(2,3-Dihydro-1,4-benzodioxin-6-yl)-5-[3-(trifluoromethyl)phenyl]-1H-pyrazole]
- inhibition at 100 µM: 36%

SMILES: COc1cccc(-c2cnc(-c3cccc(Br)c3)[nH]2)c1 [Compound 86, 2-(3-Bromophenyl)-5-(3-methoxyphenyl)-1H-imidazole]
- inhibition at 100 µM: 75%

SMILES: COc1cccc(-c2nc(-c3ccc(F)cc3)no2)c1 [Compound 51, 3-(4-Fluorophenyl)-5-(3-methoxyphenyl)-1,2,4-oxadiazole]
- inhibition at 100 µM: 8%

SMILES: O=[N+]([O-])c1ccc(-c2nc(-c3cccc(C(F)(F)F)c3)no2)cc1 [Compound 73, 5-(4-Nitrophenyl)-3-[3-(trifluoromethyl)phenyl]-1,2,4-oxadiazole]
- inhibition at 100 µM: 2%

SMILES: FC(F)(F)c1cccc(-c2nc(-c3cccc(Cl)c3)n[nH]2)c1 [Compound 161, 3-(3-Chlorophenyl)-5-[3-(trifluoromethyl)phenyl]-1H-1,2,4-triazole]
- inhibition at 100 µM: 50%

SMILES: O=S(=O)(Nc1ccc(-c2n[nH]c(-c3ccc(C(F)(F)F)cc3)n2)cc1)c1ccc(Cl)cc1 [Compound 92, 4-Chloro-N-(4-{5-[4-(trifluoromethyl)phenyl]-1H-1,2,4-triazol-3-yl}phenyl)benzenesulfonamide]
- inhibition at 100 µM: 84%

SMILES: Nc1ccc(-c2nc(-c3cccc(C(F)(F)F)c3)no2)cc1 [Compound 74, 5-(4-Aminophenyl)-3-[3-(trifluoromethyl)phenyl]-1,2,4-oxadiazole]
- inhibition at 100 µM: 18%

SMILES: CCOc1ccc(-c2cc(-c3ccc(C)c(C)c3)[nH]n2)cc1 [Compound 134, 3-(3,4-Dimethylphenyl)-5-(4-ethoxyphenyl)-1H-pyrazole]
- inhibition at 100 µM: 19%

SMILES: CCNC(=O)Nc1ccc(C)c(-c2nc(-c3ccc(F)cc3)n[nH]2)c1 [Compound 101, 1-Ethyl-3-{3-[3-(4-fluorophenyl)-1H-1,2,4-triazol-5-yl]-4-methylphenyl}urea]
- inhibition at 100 µM: 69%

SMILES: O=C(c1ccc(-c2n[nH]c(-c3ccc(Cl)cc3)n2)cc1)N1CCOCC1 [Compound 59, {4-[5-(4-Chlorophenyl)-1H-1,2,4-triazol-3-yl]phenyl}(morpholin-4-yl)methanone hydrochloride]
- inhibition at 100 µM: 87%

SMILES: Cc1cc(F)ccc1-c1cnc(-c2cccc(NC(=O)[C@@H](N)CCC(N)=O)c2)o1 [Compound 131, (2S)-2-Amino-N1-{3-[5-(4-fluoro-2-methylphenyl)-1,3-oxazol-2-yl]phenyl}pentanediamide hydrochloride]
- inhibition at 100 µM: 47%

SMILES: CC(C)[C@H](N)C(=O)Nc1ccc(-c2cc(-c3cccc(F)c3)on2)cc1 [Compound 93, (2S)-2-Amino-N-{4-[5-(3-fluorophenyl)-1,2-oxazol-3-yl]phenyl}-3-methylbutanamide hydrochloride]
- inhibition at 100 µM: 95%

SMILES: COc1ccc(-c2noc(-c3cccc(Cl)c3)n2)cc1 [Compound 67, 5-(3-Chlorophenyl)-3-(4-methoxyphenyl)-1,2,4-oxadiazole]
- inhibition at 100 µM: 55%

SMILES: COc1cc(Cl)cc(-c2nc(-c3ccc(OC(F)(F)F)cc3)co2)c1 [Compound 130, 2-(3-Chloro-5-methoxyphenyl)-4-[4-(trifluoromethoxy)phenyl]-1,3-oxazole]
- inhibition at 100 µM: 9%

SMILES: COCCOC(=O)Nc1cccc(-c2nc(-c3ccc(OC(F)(F)F)cc3)c[nH]2)c1 [Compound 137, 2-Methoxyethyl (3-{4-[4-(trifluoromethoxy)phenyl]-1H-imidazol-2-yl}phenyl) carbamate]
- inhibition at 100 µM: 77%
